# In the supplement of paper PMC10307832:
# Experiments:
# Experiment in all cases: relative viability (nuclei count vs DMSO), 5 days (fraction); higher = more cells survive
# [1] = test system: EBC-1
# Method in brief: (§1)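 Relative viability divides the nuclei count in treated wells by that in vehicle wells. Lung cancer cell lines were seeded in 1536-well plates, dosed by pin tool the next day, and fixed and stained after 5 days in one step with final 0.05% Triton X-100, 1% formaldehyde and 1 ug/ml Hoechst. Dosing was a single drug or a fixed anchor-drug dose plus five library-drug doses (not always all listed) in √10 steps, and values are medians of duplicate plates imaged at 4×.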
# [2] = test system: NCI-H1734
# Method in brief: as §1
# [3] = test system: Calu-6
# Method in brief: as §1
# [4] = test system: NCI-H1650
# Method in brief: as §1
# [5] = test system: UMC-11
# Method in brief: as §1
# [6] = test system: NCI-H1299
# Method in brief: as §1
# [7] = test system: NCI-H1703
# Method in brief: as §1
# [8] = test system: CAL-12T
# Method in brief: as §1
# [9] = test system: NCI-H2009
# Method in brief: as §1
# [10] = test system: A-427
# Method in brief: as §1
# [11] = test system: IA-LM
# Method in brief: as §1
smiles,measurement,setting,value
CC(=O)O[C@@]12CO[C@@H]1C[C@H](O)[C@@]1(C)C(=O)[C@H](O)C3=C(C)[C@@H](OC(=O)[C@H](O)[C@@H](NC(=O)OC(C)(C)C)c4ccccc4)C[C@@](O)([C@@H](OC(=O)c4ccccc4)[C@H]21)C3(C)C [Docetaxel] + CC(C)C[C@H](NC(=O)[C@H](Cc1ccccc1)NC(=O)c1cnccn1)B(O)O [Bortezomib] (partner 0.002 µM),relative viability,[1]; first compound 0.0002 µM,0.479
same,relative viability,[1]; first compound 0.000632 µM,0.385
same,relative viability,[1]; first compound 0.002 µM,0.237
same,relative viability,[1]; first compound 0.006325 µM,0.27
same,relative viability,[1]; first compound 0.02 µM,0.174
same,relative viability,[2]; first compound 0.0002 µM,0.865
same,relative viability,[2]; first compound 0.000632 µM,0.577
same,relative viability,[2]; first compound 0.002 µM,0.323
same,relative viability,[2]; first compound 0.006325 µM,0.325
same,relative viability,[2]; first compound 0.02 µM,0.222
same,relative viability,[3]; first compound 0.0002 µM,0.95
same,relative viability,[3]; first compound 0.000632 µM,0.828
same,relative viability,[3]; first compound 0.002 µM,0.327
same,relative viability,[3]; first compound 0.006325 µM,0.182
same,relative viability,[3]; first compound 0.02 µM,0.106
same,relative viability,[4]; first compound 0.0002 µM,0.2
same,relative viability,[4]; first compound 0.000632 µM,0.196
same,relative viability,[4]; first compound 0.002 µM,0.204
same,relative viability,[4]; first compound 0.006325 µM,0.181
same,relative viability,[4]; first compound 0.02 µM,0.201
same,relative viability,[5]; first compound 0.0002 µM,0.747
same,relative viability,[5]; first compound 0.000632 µM,0.763
same,relative viability,[5]; first compound 0.002 µM,0.162
same,relative viability,[5]; first compound 0.006325 µM,0.197
same,relative viability,[5]; first compound 0.02 µM,0.128
same,relative viability,[6]; first compound 0.0002 µM,1.05
same,relative viability,[6]; first compound 0.000632 µM,0.997
same,relative viability,[6]; first compound 0.002 µM,0.948
same,relative viability,[6]; first compound 0.006325 µM,0.586
same,relative viability,[6]; first compound 0.02 µM,0.503
same,relative viability,[7]; first compound 0.0002 µM,0.256
same,relative viability,[7]; first compound 0.000632 µM,0.249
same,relative viability,[7]; first compound 0.006325 µM,0.149
same,relative viability,[7]; first compound 0.02 µM,0.0944
same,relative viability,[8]; first compound 0.0002 µM,0.822
same,relative viability,[8]; first compound 0.000632 µM,0.404
same,relative viability,[8]; first compound 0.002 µM,0.348
same,relative viability,[8]; first compound 0.006325 µM,0.271
same,relative viability,[8]; first compound 0.02 µM,0.148
same,relative viability,[9]; first compound 0.0002 µM,0.99
same,relative viability,[9]; first compound 0.000632 µM,1.01
same,relative viability,[9]; first compound 0.002 µM,0.914
same,relative viability,[9]; first compound 0.006325 µM,0.263
same,relative viability,[9]; first compound 0.02 µM,0.178
same,relative viability,[10]; first compound 0.0002 µM,0.949
same,relative viability,[10]; first compound 0.000632 µM,0.964
same,relative viability,[10]; first compound 0.002 µM,0.656
same,relative viability,[10]; first compound 0.006325 µM,0.275
same,relative viability,[10]; first compound 0.02 µM,0.141
same,relative viability,[11]; first compound 0.0002 µM,0.471
same,relative viability,[11]; first compound 0.000632 µM,0.192
same,relative viability,[11]; first compound 0.002 µM,0.11
same,relative viability,[11]; first compound 0.006325 µM,0.0654
same,relative viability,[11]; first compound 0.02 µM,0.0642
COc1cc2nccc(Oc3ccc(NC(=O)Nc4cc(C)on4)c(Cl)c3)c2cc1OC [Tivozanib] + CC(C)C[C@H](NC(=O)[C@H](Cc1ccccc1)NC(=O)c1cnccn1)B(O)O [Bortezomib] (partner 0.002 µM),relative viability,[1]; first compound 0.005 µM,0.5
same,relative viability,[1]; first compound 0.01581 µM,0.561
same,relative viability,[1]; first compound 0.05 µM,0.624
same,relative viability,[1]; first compound 0.1581 µM,0.511
same,relative viability,[1]; first compound 0.5 µM,0.477
same,relative viability,[2]; first compound 0.005 µM,0.757
same,relative viability,[2]; first compound 0.01581 µM,0.904
same,relative viability,[2]; first compound 0.05 µM,1.01
same,relative viability,[2]; first compound 0.1581 µM,0.677
same,relative viability,[2]; first compound 0.5 µM,0.854
same,relative viability,[3]; first compound 0.005 µM,0.904
same,relative viability,[3]; first compound 0.01581 µM,1.08
same,relative viability,[3]; first compound 0.05 µM,0.986
same,relative viability,[3]; first compound 0.1581 µM,0.965
same,relative viability,[3]; first compound 0.5 µM,0.95
same,relative viability,[4]; first compound 0.005 µM,0.195
same,relative viability,[4]; first compound 0.01581 µM,0.21
same,relative viability,[4]; first compound 0.05 µM,0.209
same,relative viability,[4]; first compound 0.1581 µM,0.264
same,relative viability,[4]; first compound 0.5 µM,0.196
same,relative viability,[5]; first compound 0.005 µM,0.579
same,relative viability,[5]; first compound 0.01581 µM,0.723
same,relative viability,[5]; first compound 0.05 µM,0.911
same,relative viability,[5]; first compound 0.5 µM,0.668
same,relative viability,[6]; first compound 0.005 µM,1.05
same,relative viability,[6]; first compound 0.01581 µM,1.02
same,relative viability,[6]; first compound 0.05 µM,1.01
same,relative viability,[6]; first compound 0.1581 µM,1.06
same,relative viability,[6]; first compound 0.5 µM,0.958
same,relative viability,[7]; first compound 0.005 µM,0.247
same,relative viability,[7]; first compound 0.01581 µM,0.186
same,relative viability,[7]; first compound 0.05 µM,0.154
same,relative viability,[7]; first compound 0.1581 µM,0.167
same,relative viability,[7]; first compound 0.5 µM,0.164
same,relative viability,[8]; first compound 0.005 µM,0.86
same,relative viability,[8]; first compound 0.01581 µM,0.967
same,relative viability,[8]; first compound 0.05 µM,1.14
same,relative viability,[8]; first compound 0.5 µM,1.03
same,relative viability,[9]; first compound 0.005 µM,0.945
same,relative viability,[9]; first compound 0.01581 µM,1.02
same,relative viability,[9]; first compound 0.05 µM,1.04
same,relative viability,[9]; first compound 0.1581 µM,1.04
same,relative viability,[9]; first compound 0.5 µM,0.732
same,relative viability,[10]; first compound 0.005 µM,0.988
same,relative viability,[10]; first compound 0.01581 µM,1.03
same,relative viability,[10]; first compound 0.05 µM,0.962
same,relative viability,[10]; first compound 0.1581 µM,0.893
same,relative viability,[10]; first compound 0.5 µM,0.932
same,relative viability,[11]; first compound 0.005 µM,0.716
same,relative viability,[11]; first compound 0.01581 µM,0.812
same,relative viability,[11]; first compound 0.05 µM,0.821
same,relative viability,[11]; first compound 0.1581 µM,0.623
same,relative viability,[11]; first compound 0.5 µM,0.614
